From PubChem BioAssay (NCI) come the findings set out here.

Test systems include LOX IMVI melanoma; UO-31 renal; U251 CNS; MOLT-4 leukemia; SF-268 CNS; OVCAR-4 ovarian; CCRF-CEM leukemia; IGROV1 ovarian; RXF 393 renal.
Holding throughout (assay): NCI-60 cell line screen, 48 h

Several values for one entry are separate records, joined by “and”; a condition that tells them apart may be missing. Equal entries are not always repeated.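 Step 1: Grow cells in 96-well plates. Step 2: Expose to compound for 48 hours at 5 concentrations. Step 3: Interpolate endpoints linearly; if unreached, use highest concentration. GI50 marks 50% less growth. Definition used: TGI = concentration required for complete inhibition of growth.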

Regarding `CCc1ccc(NCc2cc(OC)c(OC)c(OC)c2)cc1`, the GI50 with LOX IMVI melanoma was 0.543 µM and 0.149 µM; with UO-31 renal it was 1.37 µM and 3.95 µM; with U251 CNS, 0.411 µM and 0.167 µM; in the assay with SF-268 CNS, 0.862 µM and 1.78 µM; with IGROV1 ovarian, 1.32 µM and 0.615 µM. Further, the TGI is 25.7 µM and 43.8 µM in the assay with LOX IMVI melanoma; 55.8 µM and 62.6 µM in the assay with UO-31 renal; 22.2 µM and 11.9 µM in the assay with U251 CNS; 87.2 µM and > 91.5 µM with MOLT-4 leukemia; 43.6 µM and 64.8 µM in the assay with SF-268 CNS; greater than 100 µM in the assay with OVCAR-4 ovarian. In addition, the figures for the TGI with CCRF-CEM leukemia and with IGROV1 ovarian were greater than 77.9 µM and greater than 66.2 µM, respectively.
As to `CN(C)c1ccc2c(NCCCCCCNc3ccnc4cc(N(C)C)ccc34)ccnc2c1`, the TGI is greater than 100 µM with UO-31 renal; 24.3 µM with U251 CNS; greater than 100 µM in the assay on MOLT-4 leukemia; greater than 100 µM with SF-268 CNS; 38.4 µM with RXF 393 renal; 28.2 µM with OVCAR-4 ovarian. Besides, the TGI with CCRF-CEM leukemia was greater than 100 µM.
As to `CC1=C2CCCC2C/C(=N/Nc2ccc([N+](=O)[O-])cc2[N+](=O)[O-])CC1` (stereo not drawn), the TGI in the assay with LOX IMVI melanoma, in the assay on UO-31 renal, in the assay on U251 CNS, in the assay with MOLT-4 leukemia, with SF-268 CNS and in the assay on OVCAR-4 ovarian was greater than 100 µM in each case. In addition, in the assay with IGROV1 ovarian, the TGI is greater than 100 µM.
Regarding `Nc1cc(=O)[nH]c(SC2=NC(N)CC(O)C2)n1` (stereo not drawn), the TGI in the assay with LOX IMVI melanoma, with UO-31 renal, in the assay with U251 CNS, in the assay on MOLT-4 leukemia, in the assay with OVCAR-4 ovarian and with CCRF-CEM leukemia was greater than 100 µM throughout. Moreover, in the assay on IGROV1 ovarian, the TGI was greater than 100 µM.
As for `Cc1ccc2c(c1)C1(C)OC(CC(N)C1O)O2` (stereo not drawn), the TGI in the assay on LOX IMVI melanoma, in the assay on UO-31 renal, in the assay with U251 CNS, in the assay on MOLT-4 leukemia, in the assay on RXF 393 renal and in the assay on CCRF-CEM leukemia was greater than 100 µM each time. Also, the TGI with IGROV1 ovarian is greater than 100 µM.
Take `CCCC(O)[C@@H](O)c1ccc2c(c1O)C(=O)c1c(OC)cccc1C2=O` (stereo partly drawn): the TGI in the assay with LOX IMVI melanoma is 80.4 µM; in the assay on UO-31 renal it was 91.2 µM; in the assay on U251 CNS, greater than 100 µM; with MOLT-4 leukemia it was 69.2 µM; in the assay on SF-268 CNS it was greater than 100 µM; in the assay with OVCAR-4 ovarian it was greater than 100 µM. Besides, the TGI in the assay on CCRF-CEM leukemia was 85.7 µM; with IGROV1 ovarian, greater than 100 µM.
Consider `Cc1ccc2[nH]c(C(=O)NN3C(=O)CSC34CCCCC4C)c(-c3ccccc3)c2c1` (stereo not drawn), for which the GI50 with LOX IMVI melanoma is 18.9 µM; with UO-31 renal it was 15.5 µM; in the assay with U251 CNS it was 16.8 µM; in the assay with MOLT-4 leukemia it was 9.38 µM; in the assay on SF-268 CNS, 17.2 µM; in the assay with OVCAR-4 ovarian, 16.5 µM. Also, the GI50 in the assay with CCRF-CEM leukemia was 17 µM. Also, the TGI in the assay with LOX IMVI melanoma was 35.6 µM; in the assay on UO-31 renal, 30.9 µM; with U251 CNS it was 32.7 µM; in the assay on MOLT-4 leukemia it was 28.4 µM; in the assay with SF-268 CNS it was 37.4 µM; in the assay on OVCAR-4 ovarian, 34.2 µM. Moreover, in the assay on CCRF-CEM leukemia, the TGI amounted to 38.5 µM.
For the compound `NC(=O)OCC(COc1ccc(Cl)cc1)OC(=O)c1ccccc1Cl` (stereo not drawn), the TGI was determined as 27.9 µM with LOX IMVI melanoma; 51.5 µM in the assay with UO-31 renal; 27.6 µM in the assay on U251 CNS; 56.6 µM in the assay with MOLT-4 leukemia; 79.1 µM in the assay on SF-268 CNS; 25.7 µM in the assay on RXF 393 renal. Further, the TGI came to 47.4 µM in the assay on CCRF-CEM leukemia and 59.9 µM with IGROV1 ovarian.
In the case of `COC(=O)[C@@H]1CSC(=S)N1C(=O)C[C@H]1CC=CC[C@H]1CC(=O)Sc1ccccc1`, the TGI with LOX IMVI melanoma worked out at 33.1 µM; in the assay with UO-31 renal, 26.8 µM; with U251 CNS, 32.4 µM; with MOLT-4 leukemia, 16.7 µM; in the assay on SF-268 CNS, 35.1 µM; in the assay on RXF 393 renal, 30.4 µM. The figures for the TGI in the assay on CCRF-CEM leukemia and with IGROV1 ovarian were 14.9 µM and 39.7 µM, respectively.
As to `CS(=O)(=O)CC1=Nc2nnc(CCCCCCCc3nnc4n3C(=O)C(CS(C)(=O)=O)=N4)n2C1=O`, the TGI in the assay with LOX IMVI melanoma, with UO-31 renal, in the assay with U251 CNS, with MOLT-4 leukemia, in the assay with SF-268 CNS and with RXF 393 renal was greater than 100 µM each time. The TGI in the assay on CCRF-CEM leukemia and in the assay on IGROV1 ovarian was greater than 100 µM throughout.
As to `O=C(CCn1[nH]c(=O)c(Cl)c(Cl)c1=O)NOCCCc1ccccc1`, the TGI in the assay on LOX IMVI melanoma, in the assay on UO-31 renal, in the assay on MOLT-4 leukemia, with SF-268 CNS, in the assay on OVCAR-4 ovarian and in the assay with CCRF-CEM leukemia was greater than 100 µM throughout. This compound gave a TGI in the assay with IGROV1 ovarian greater than 100 µM.
For the compound `COc1ccccc1[N-]C(C1=C([O-])c2ccccc2C1=O)c1ccccc1.COc1ccccc1[N-]C(C1=C([O-])c2ccccc2C1=O)c1ccccc1.[Cu+2]` (stereo not drawn), the GI50 was 8.64 µM in the assay with LOX IMVI melanoma; 12 µM in the assay on UO-31 renal; 2.88 µM with U251 CNS; 5.98 µM with MOLT-4 leukemia; 5.3 µM with SF-268 CNS; 3.49 µM in the assay on CCRF-CEM leukemia. In the assay on IGROV1 ovarian, the GI50 is 9.3 µM. Moreover, the TGI was 95.2 µM in the assay on LOX IMVI melanoma; 75.2 µM with UO-31 renal; 8.33 µM in the assay on U251 CNS; greater than 100 µM in the assay with MOLT-4 leukemia; greater than 100 µM with SF-268 CNS; greater than 100 µM with CCRF-CEM leukemia. Moreover, the TGI with IGROV1 ovarian was greater than 100 µM.
